In PubChem BioAssay (NCI) one finds GI50 and TGI data, which are given here for 9 molecules.

Values joined by “and” are separate entries in the source; they are usually repeats but may differ in a detail not shown here. Identical values can stand only once.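 All cell lines were grown in 96-well plates and treated with compound for 48 hours. Here, GI50 denotes the concentration required for 50% inhibition of growth. TGI marks complete inhibition of growth.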

Among the test systems are DU-145 prostate; OVCAR-4 ovarian; BT-549 breast; UACC-257 melanoma; NCI-H23 lung; SF-295 CNS; HCC-2998 colon; KM12 colon; NCI-H522 lung; MALME-3M melanoma.
Holding throughout (assay): NCI tumour cell line growth inhibition, 48 h

Regarding `CCN(CC)CCCNc1cc(OC)cc2nc3cc(Cl)ccc3nc12`, the GI50 with DU-145 prostate is 2.53 µM; with OVCAR-4 ovarian it was 1.67 µM; with BT-549 breast, 4.95 µM; with UACC-257 melanoma it was 1.83 µM; in the experiment with NCI-H23 lung it was 1.79 µM; with SF-295 CNS, 2.33 µM. Further, the GI50 in the experiment with HCC-2998 colon is 1.47 µM; in the experiment with KM12 colon it was 1.3 µM; with NCI-H522 lung it was 1.34 µM; with MALME-3M melanoma it was 1.68 µM. Further, the TGI amounted to 12.4 µM in the experiment with DU-145 prostate; 3.51 µM in the experiment on OVCAR-4 ovarian; 15.3 µM in the experiment on BT-549 breast; 3.31 µM in the experiment on UACC-257 melanoma; 4.32 µM with NCI-H23 lung; 6.48 µM with SF-295 CNS. Further, the TGI with HCC-2998 colon turned out to be 2.92 µM; with KM12 colon, 3.43 µM; with NCI-H522 lung, 3.08 µM; in the experiment with MALME-3M melanoma, 3.35 µM.

In the case of `COc1cc(/C=C/C(=O)/C=C/c2ccc(-n3ccnc3C)cc2)ccc1O`, the GI50 with DU-145 prostate was 2.82 µM; with OVCAR-4 ovarian it was 8.87 µM; in the experiment on BT-549 breast, 1.97 µM; in the experiment on UACC-257 melanoma, 3.33 µM; in the experiment on NCI-H23 lung it was 2.08 µM; with SF-295 CNS it was 24.6 µM. Further, the GI50 is 1.75 µM in the experiment on HCC-2998 colon, 2.07 µM in the experiment with KM12 colon, 5.26 µM with NCI-H522 lung and 4.63 µM in the experiment with MALME-3M melanoma. The TGI in the experiment with DU-145 prostate is 7.55 µM; in the experiment on OVCAR-4 ovarian it was more than 100 µM; in the experiment on BT-549 breast, 4.82 µM; in the experiment on UACC-257 melanoma it was 13.5 µM; with NCI-H23 lung it was 5.5 µM; with SF-295 CNS it was more than 100 µM. For the same molecule, the TGI came out at 3.21 µM with HCC-2998 colon, 4.25 µM with KM12 colon, 24.9 µM with NCI-H522 lung and 30.5 µM in the experiment with MALME-3M melanoma.

For the molecule `COc1cc(/C=N/Nc2ncnc3c2cnn3-c2ccccc2)ccc1O`, the GI50 was more than 19.6 µM in the experiment on DU-145 prostate; 15.5 µM in the experiment on OVCAR-4 ovarian; more than 25 µM in the experiment on BT-549 breast; more than 25 µM in the experiment with UACC-257 melanoma; more than 25 µM in the experiment on NCI-H23 lung; more than 15.5 µM with SF-295 CNS. In addition, the GI50 in the experiment with HCC-2998 colon was 21.6 µM; in the experiment on KM12 colon it was 1.64 µM; in the experiment on NCI-H522 lung, 2.27 µM; in the experiment with MALME-3M melanoma, more than 25 µM. Further, the TGI with DU-145 prostate, in the experiment on OVCAR-4 ovarian, with BT-549 breast, in the experiment on UACC-257 melanoma, in the experiment with NCI-H23 lung and in the experiment on SF-295 CNS was more than 25 µM throughout. For the same molecule, the TGI in the experiment with HCC-2998 colon is more than 25 µM; in the experiment with KM12 colon, more than 25 µM; in the experiment with NCI-H522 lung, more than 17.3 µM; with MALME-3M melanoma, more than 25 µM.

With `CCC(C)Nc1ccc(N)cc1` (centres undefined), the GI50 was 5.75 µM in the experiment with DU-145 prostate; 3.18 µM in the experiment on OVCAR-4 ovarian; 6.26 µM in the experiment with BT-549 breast; 5.33 µM with UACC-257 melanoma; 2.89 µM in the experiment with NCI-H23 lung; 4.91 µM in the experiment on SF-295 CNS. The GI50 with HCC-2998 colon was 4.39 µM; with KM12 colon, 4.09 µM; with NCI-H522 lung, 3.07 µM; in the experiment with MALME-3M melanoma, 2.65 µM. In addition, the TGI in the experiment with DU-145 prostate is 19.7 µM; with OVCAR-4 ovarian, 38.6 µM; in the experiment on BT-549 breast, 20.9 µM; in the experiment with UACC-257 melanoma, 16.9 µM; with NCI-H23 lung, 8.89 µM; in the experiment on SF-295 CNS it was 20.1 µM. Further, the TGI in the experiment on HCC-2998 colon came out at 16.1 µM; in the experiment with KM12 colon, 13.5 µM; in the experiment on NCI-H522 lung, 9.07 µM; in the experiment with MALME-3M melanoma, 8.08 µM.

As to `CCN(Cc1ccccc1)C1CCN(Cc2cc(Br)ccc2O)CC1`, the GI50 with DU-145 prostate is more than 100 µM; in the experiment on OVCAR-4 ovarian, 33.7 µM; in the experiment on BT-549 breast, 44.4 µM; in the experiment with UACC-257 melanoma, 26 µM; in the experiment with NCI-H23 lung, 34.9 µM; in the experiment with SF-295 CNS it was 25.6 µM. Moreover, the GI50 with HCC-2998 colon is 33.7 µM; in the experiment with KM12 colon it was 42.3 µM; in the experiment with NCI-H522 lung it was 17 µM; in the experiment on MALME-3M melanoma it was 24 µM. Also, the TGI with DU-145 prostate, in the experiment with OVCAR-4 ovarian, with BT-549 breast, with UACC-257 melanoma, in the experiment with NCI-H23 lung and with SF-295 CNS was more than 100 µM in each case. The TGI in the experiment with HCC-2998 colon was more than 100 µM; in the experiment on KM12 colon, more than 100 µM; with NCI-H522 lung, 40.3 µM; in the experiment with MALME-3M melanoma, 53 µM.

For `CNC(=O)c1cc(Oc2ccc(NC(=O)Nc3ccc(Cl)c(C(F)(F)F)c3)c(F)c2)ccn1`, the GI50 with DU-145 prostate is 3.46 µM and 3.96 µM; in the experiment on OVCAR-4 ovarian, 2.56 µM and 2.74 µM; with BT-549 breast it was 2.56 µM and 2.67 µM; in the experiment on UACC-257 melanoma, 1.97 µM and 1.35 µM; in the experiment with NCI-H23 lung, 1.42 µM and 1.44 µM; in the experiment with SF-295 CNS, 2.82 µM and 2.29 µM. Further, the GI50 was 2.44 µM and 1.9 µM with HCC-2998 colon; 1.9 µM and 1.49 µM with KM12 colon; 1.73 µM and 1.7 µM in the experiment on NCI-H522 lung; 0.76 µM and 1.95 µM with MALME-3M melanoma. Also, the TGI in the experiment on DU-145 prostate was more than 100 µM; in the experiment with OVCAR-4 ovarian, 19.7 µM and > 10 µM; in the experiment on BT-549 breast it was 8.64 µM and 9.09 µM; in the experiment with UACC-257 melanoma, 6.03 µM and 5.1 µM; in the experiment on NCI-H23 lung, 6.29 µM and 7.14 µM; in the experiment with SF-295 CNS, 19.8 µM and > 10 µM. In addition, the TGI is 10.4 µM and 8.17 µM with HCC-2998 colon; 7.86 µM and > 10 µM with KM12 colon; 5.84 µM and 6.43 µM in the experiment on NCI-H522 lung; 5.87 µM and > 10 µM in the experiment on MALME-3M melanoma.

Regarding `Cc1ccc(/C=N/Nc2nc(Nc3ccccc3)nc(-n3nc(C)cc3C)n2)cc1`, the GI50 is 5.45 µM with DU-145 prostate; 3.06 µM in the experiment with OVCAR-4 ovarian; 4 µM with BT-549 breast; 9.04 µM with UACC-257 melanoma; 5.41 µM in the experiment on NCI-H23 lung; 2.74 µM in the experiment on SF-295 CNS. The GI50 is 2.71 µM with HCC-2998 colon, 3.28 µM with KM12 colon, 2.67 µM in the experiment with NCI-H522 lung and 4.21 µM with MALME-3M melanoma. Besides, the TGI was more than 100 µM in the experiment with DU-145 prostate; 25.5 µM in the experiment on OVCAR-4 ovarian; 34.1 µM with BT-549 breast; 39.5 µM with UACC-257 melanoma; 24.3 µM in the experiment with NCI-H23 lung; 14.4 µM with SF-295 CNS. The TGI in the experiment on HCC-2998 colon is 6.6 µM; with KM12 colon, 13.1 µM; with NCI-H522 lung, 6.48 µM; in the experiment with MALME-3M melanoma, 26.8 µM.

On to `CCc1ccc(CCC(=O)Nc2ncc(Cc3ccc(Cl)cc3)s2)o1`, for which the GI50 is 0.329 µM with DU-145 prostate; more than 100 µM in the experiment on OVCAR-4 ovarian; 2.12 µM with BT-549 breast; 1.53 µM in the experiment on NCI-H23 lung; 0.374 µM in the experiment with SF-295 CNS; 0.812 µM in the experiment with HCC-2998 colon. The GI50 was 0.377 µM with KM12 colon, 0.302 µM with NCI-H522 lung and 0.466 µM in the experiment with MALME-3M melanoma. The TGI with DU-145 prostate, in the experiment on OVCAR-4 ovarian, in the experiment on BT-549 breast, with UACC-257 melanoma, with NCI-H23 lung and with SF-295 CNS was more than 100 µM in each case. Further, the TGI in the experiment on HCC-2998 colon was more than 100 µM; in the experiment with KM12 colon it was more than 100 µM; in the experiment on NCI-H522 lung, 53.9 µM; with MALME-3M melanoma, more than 100 µM.

As for `CC(C)(C)c1ccc(Oc2ccc(N)cn2)cc1`, the GI50 was 38.2 µM with DU-145 prostate; 32.8 µM with OVCAR-4 ovarian; 11.3 µM with BT-549 breast; 37.8 µM with UACC-257 melanoma; 53 µM with NCI-H23 lung; 45.8 µM in the experiment on SF-295 CNS. In addition, the GI50 is more than 100 µM with HCC-2998 colon, 44.2 µM in the experiment on KM12 colon, 9.46 µM with NCI-H522 lung and 39.7 µM with MALME-3M melanoma. For the same molecule, the TGI in the experiment on DU-145 prostate was more than 100 µM; in the experiment on OVCAR-4 ovarian it was more than 100 µM; in the experiment with BT-549 breast it was 99.8 µM; with UACC-257 melanoma, more than 100 µM; in the experiment with NCI-H23 lung, more than 100 µM; in the experiment with SF-295 CNS, more than 100 µM. The TGI in the experiment with HCC-2998 colon, in the experiment with KM12 colon, in the experiment on NCI-H522 lung and with MALME-3M melanoma was more than 100 µM throughout.
